Test results from patent publication US6713513B2, “Method for treating cartilage related diseases” (Juneng Industry Co., Ltd., priority 2001, dated 2004).
Marks after values point to notes of the source that are not given here.

Legend:
[1] = system: collagen I of chondrocyte; assay: Immunohistochemical staining of collagen I (ABC method), chondrocytes, rats with retinoic acid osteoporosis; settings: for Positive Case Nos. of chondrocyte (collagen I immunohistochemical staining) / Positive percentage of collagen I by immunohistochemical staining, chondrocyte: 100 mg/kg body weight, 10 weeks
Experimental: (§4) Grouping of animals: 66 male 3-month-aged rats were used in the present test. Eight rats were randomly selected as blank-control group, which were fed with normal diet and tap water. The other 58 rats were randomly divided into 9 groups, and were continuously administered retinoic acid with a dosage of 70 mg/kg body weight and volume of 10 ml/kg body weight, and were fed with low calcium diet meanwhile. After two weeks of administration of retinoic acid, stop the drug and thus establishing osteoporosis models.
(§5) The rats were administered drugs for 10 weeks, respectively. During the whole test period, each group was fed with low calcium diet and de-ionized water except that the blank-control group was fed with normal diet. Then the lower one third of right femur of each rat was extracted, and preserved at −20° C.
Collagen I was immunohistochemically stained by ABC method, following the directions of kit. Collagen I was developed by DAB. The slide was routinely dehydrated and mounted. (The detection kit was provided by Wuhan Doctor Microbiologic Engineering Co. Ltd., China. Cat. No: BA0325)
The results were observed by microscopy, which was expressed by positive percentage. X2 test was conducted to the experimental data.

[2] = system: mRNA of collagen I of osteocyte; assay: Hybridization in situ of mRNA of collagen I, osteocytes, femur of rats with retinoic acid osteoporosis; format: in vivo, rat; settings: for Positive Case Nos. of osteocyte (mRNA of collagen I) / Positive percentage of mRNA of collagen I, osteocyte: 100 mg/kg body weight, 10 weeks
Experimental: (§1) The rats were administered drugs for 10 weeks, respectively.
(§2) Collagen I was stained by hybridization in situ, following the directions of the kit. After specific hybridization, mRNA of collagen I was developed by 3,3′-diaminobenzidine (DAB). The slide was routinely dehydrated and mounted.
(§3) X2 test was conducted to the experimental data.

[3] = system: bone tissue of the rat with osteoporosis caused by retinoic acid; assay: Histochemical staining (M-S, T-B, HE, V-K silver) of bone and cartilage; settings: for Articular cartilage / cartilage matrix: blank-control group as normal reference; for Formation of new bone: compared with blank-control group; for Bone trabeculae in cancellous bone (figure legends): FIGS. 7, 13, 14
Experimental: as §4
(4) Calcium citrate group: 6 rats, administered calcium citrate with a dosage of 100 mg/kg body weight
(5) Sodium hydroxyethyl phosphate group: 6 rats, administered sodium hydroxyethyl phosphate with a dosage of 100 mg/kg body weight
as §5
(2) Histochemical Staining
a Masson-Goldner Lrichrone staining (M-S staining)
b Toluidine Blue staining (T-B staining)
c Hematoxylin-eosin (HE) staining
d Von Kossa silver staining of partial slice (V-K silver staining).

[4] = system: mRNA of collagen I of chondrocyte; assay: Hybridization in situ of mRNA of collagen I, chondrocytes, femur of rats with retinoic acid osteoporosis; format: in vivo, rat
Experimental: as §1, §2, §3

[5] = 100 mg/kg body weight, 10 weeks

Question: How did the “Positive percentages of collagen I by immunohistochemistry, comparison of groups” value ([1]; rat, in vivo) turn out when calcium L-threonate was run?
Answer: Its value is “relatively higher”.

Question: What about the “Positive percentage of mRNA of collagen I compared with Model-control group” value ([2]; rat, in vivo) of the same compound?
Answer: Its value is “significantly higher than Model-control group”.

Question: What about the “Nourishing blood vessels of the bone” value ([3]; 10 weeks) of the same compound?
Answer: Its value is “increased”.

Question: And the “Articular cartilage / cartilage matrix” value ([3]; 10 weeks)?
Answer: The value was “Cartilage collagen fibers and matrix thickened”.

Question: And the “Formation of new bone” value ([3]; 10 weeks)?
Answer: The value was “increased”.

Question: What about the “Bone trabeculae in cancellous bone (figure legends)” value [3] of the same compound?
Answer: Its value is “thick, dense and ordered”.

Question: What about the “Osteocollagenous fibers by silver staining (figure legends)” value ([3]; silver staining, FIGS. 9, 10, 11, 20) of the same compound?
Answer: The value was “parallel, regular and abundant”.

Question: And the “Expression percentage of mRNA of collagen I compared with model-control group” value ([4]; rat, in vivo)?
Answer: The value was “significantly higher than that of model-control group”.

Question: For `O=C([O-])CC(O)(CC(=O)[O-])C(=O)[O-].O=C([O-])CC(O)(CC(=O)[O-])C(=O)[O-].[Ca+2].[Ca+2].[Ca+2]` [Calcium citrate, calcium citrate], which “Positive Case Nos. of chondrocyte (collagen I immunohistochemical staining)” value [1] is on record?
Answer: Its value is 0 (0%)**.

Question: What about the “Positive percentage of collagen I by immunohistochemical staining, chondrocyte” value [1] of the same compound?
Answer: Its value is 0 (0%)**.

Question: What about the “Positive Case Nos. of osteocyte (mRNA of collagen I)” value [2] of the same compound?
Answer: Its value is 2.

Question: What about the “Positive percentage of mRNA of collagen I, osteocyte” value [2] of the same compound?
Answer: The value was 33.3%.

Question: What about the “Formation of new bone” value ([3]; 10 weeks) of the same compound?
Answer: Its value is “less than those of the blank-control group”.

Question: What about the “Positive Case Nos. of chondrocyte (mRNA of collagen I)” value [4, 5] of the same compound?
Answer: Its value is 0 (0%).

Question: And the “Positive percentage of mRNA of collagen I, chondrocyte” value [4, 5]?
Answer: The value was 0 (0%).

Question: For `O=P([O-])([O-])OCCO.[Na+].[Na+]` [Sodium hydroxyethyl phosphate, sodium hydroxyethyl phosphate], which “Positive Case Nos. of chondrocyte (collagen I immunohistochemical staining)” value [1] is on record?
Answer: Its value is 2.

Question: What about the “Positive percentage of collagen I by immunohistochemical staining, chondrocyte” value [1] of the same compound?
Answer: The value was 33.3%.

Question: What about the “Positive Case Nos. of osteocyte (mRNA of collagen I)” value [2] of the same compound?
Answer: Its value is 2.

Question: What about the “Positive percentage of mRNA of collagen I, osteocyte” value [2] of the same compound?
Answer: Its value is 33.3%.

Question: And the “Articular cartilage / cartilage matrix” value ([3]; 10 weeks)?
Answer: The value was “developed retrograde affection”.

Question: And the “Bone trabeculae in cancellous bone (figure legends)” value [3]?
Answer: Its value is “excessive and disorganized”.

Question: And the “Staining of glycogen in cancellous bone (figure legends)” value ([3]; histochemical staining of glycogen, FIGS. 8, 13, 14)?
Answer: Its value is “less glycogen”.
